What all share (assay type): functional, cell-based
In assay [1] the test system is A549. As to the kind of experiment: Cytotoxicity against human A549 cells.
For assay [2], the system named is KB. In words: Cytotoxicity against human KB cells.
For assay [3], the system named is P388. As to the kind of experiment: Cytotoxicity against mouse P388 cells.

The record followed here is ChEMBL document CHEMBL1157085, “Cytoglobosins A-G, cytochalasans from a marine-derived endophytic fungus, Chaetomium globosum QEN-14” (J Nat Prod, 2010).

As a reminder, the IC50 is the concentration that inhibits the measured activity by half. Low values mean higher potency, high ones lower potency.

Calls of active or inactive are those of the source. No cut-off for these calls is given here.

`CC1=C(C)[C@H]2[C@H](Cc3c[nH]c4ccccc34)NC(=O)[C@]23C(=O)/C=C/[C@H](O)[C@H](O)/C(C)=C/[C@@H](C)C/C=C/[C@H]3[C@@H]1O` [CYTOGLOBOSIN C]: the IC50 in assay [1] was 2.26 µM. The result in assay [2] and in assay [3] was inactive.

`C=C1[C@@H](C)[C@H]2[C@H](Cc3c[nH]c4ccccc34)NC(=O)[C@]23C(=O)C[C@H]2C(=O)C(O)=C(C)[C@@H]2[C@@H](C)C/C=C/[C@H]3[C@@H]1O` [CYTOGLOBOSIN A] gave an IC50 in assay [1] greater than 10 µM. The result in assay [2] and in assay [3] was inactive.

Consider `C=C1[C@@H](C)[C@H]2[C@H](Cc3c[nH]c4ccccc34)NC(=O)[C@]23C(=O)/C=C/[C@H](O)[C@H](O)/C(C)=C/[C@@H](C)C/C=C/[C@H]3[C@@H]1O` [CYTOGLOBOSIN B], for which the concentration for half-maximal inhibition (IC50) in assay [1] is greater than 10 µM. In addition, the outcome in assay [2] and in assay [3] was inactive.

Molecule `C/C1=C\[C@@H](C)C/C=C/[C@H]2C=C(CO)[C@@H](C)[C@H]3[C@H](Cc4c[nH]c5ccccc45)NC(=O)[C@]32C(=O)CCC(=O)C1=O` [CYTOGLOBOSIN E] yielded an IC50 in assay [1] greater than 10 µM. Further, the outcome in assay [2] and in assay [3] was inactive.

In assay [1], `CC1=C[C@@H]2/C=C/C[C@H](C)/C=C(\C)[C@@H](O)[C@@H](O)/C=C/C(=O)[C@]23C(=O)N[C@@H](Cc2c[nH]c4ccccc24)[C@@H]3[C@@H]1C` [CYTOGLOBOSIN D] registered a half-inhibitory concentration (IC50) of 2.55 µM. The result in assay [2] and in assay [3] was inactive.
